In PubChem BioAssay (NCI):
Values joined by “and” are separate entries in the source; they are usually repeats but may differ in a detail not shown here. Identical values can stand only once.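 GI50: concentration for 50% inhibition of growth. The concentration for full growth arrest is given as TGI.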

Tests used:
Test in all cases: growth of human tumour cells (NCI), 384-well format
SF-295 CNS = tested on: SF-295 CNS
SR leukemia = tested on: SR leukemia
PC-3 prostate = tested on: PC-3 prostate
COLO 205 colon = tested on: COLO 205 colon
MCF7 breast = tested on: MCF7 breast
NCI-H23 lung = tested on: NCI-H23 lung
SNB-19 CNS = tested on: SNB-19 CNS
TK-10 renal = tested on: TK-10 renal
NCI-H226 lung = tested on: NCI-H226 lung
OVCAR-5 ovarian = tested on: OVCAR-5 ovarian
OVCAR-3 ovarian = tested on: OVCAR-3 ovarian
SK-OV-3 ovarian = tested on: SK-OV-3 ovarian
HCC-2998 colon = tested on: HCC-2998 colon
SF-539 CNS = tested on: SF-539 CNS
NCI-H460 NSCLC = tested on: NCI-H460 NSCLC
KM12 colon = tested on: KM12 colon
NCI-H522 lung = tested on: NCI-H522 lung
MOLT-4 leukemia = tested on: MOLT-4 leukemia
MALME-3M melanoma = tested on: MALME-3M melanoma
SN12C renal = tested on: SN12C renal
HCT-15 colon = tested on: HCT-15 colon
HOP-92 NSCLC = tested on: HOP-92 NSCLC
HL-60(TB) leukemia = tested on: HL-60(TB) leukemia
OVCAR-4 ovarian = tested on: OVCAR-4 ovarian
SK-MEL-5 melanoma = tested on: SK-MEL-5 melanoma
HCT-116 colon = tested on: HCT-116 colon
MDA-MB-231 breast = tested on: MDA-MB-231 breast
A549 NSCLC = tested on: A549 NSCLC
DU-145 prostate = tested on: DU-145 prostate
K-562 leukemia = tested on: K-562 leukemia
786-0 renal = tested on: 786-0 renal
MDA-MB-435 melanoma = tested on: MDA-MB-435 melanoma
SK-MEL-2 melanoma = tested on: SK-MEL-2 melanoma
SF-268 CNS = tested on: SF-268 CNS
A498 renal = tested on: A498 renal
HOP-62 NSCLC = tested on: HOP-62 NSCLC
UO-31 renal = tested on: UO-31 renal
HT29 colon = tested on: HT29 colon
SK-MEL-28 melanoma = tested on: SK-MEL-28 melanoma
IGROV1 ovarian = tested on: IGROV1 ovarian
HS 578T breast = tested on: HS 578T breast
EKVX NSCLC = tested on: EKVX NSCLC
SW-620 colon = tested on: SW-620 colon
UACC-257 melanoma = tested on: UACC-257 melanoma
U251 glioblastoma = tested on: U251 glioblastoma
RPMI-8226 leukemia = tested on: RPMI-8226 leukemia
NCI/ADR-RES ovarian = tested on: NCI/ADR-RES ovarian
OVCAR-8 ovarian = tested on: OVCAR-8 ovarian
SNB-75 CNS = tested on: SNB-75 CNS
LOX IMVI melanoma = tested on: LOX IMVI melanoma
RXF 393 renal = tested on: RXF 393 renal
UACC-62 melanoma = tested on: UACC-62 melanoma
ACHN renal = tested on: ACHN renal
T-47D breast = tested on: T-47D breast
M14 melanoma = tested on: M14 melanoma
MDA-MB-468 breast = tested on: MDA-MB-468 breast
BT-549 breast = tested on: BT-549 breast
CAKI-1 renal = tested on: CAKI-1 renal
NCI-H322M lung = tested on: NCI-H322M lung

Compound: COCCNCCc1cccc(Nc2ncc3c(n2)-c2ccccc2C(c2ccccc2F)C3)c1 (stereo not drawn)
- GI50 (SF-295 CNS): 1740 nM and 1820 nM
- TGI (SF-295 CNS): 3140 nM and 3230 nM
- GI50 (SR leukemia): 255 nM and 168 nM
- TGI (SR leukemia): 421 nM and 358 nM
- GI50 (PC-3 prostate): 1590 nM and 1400 nM
- TGI (PC-3 prostate): 2960 nM and 2720 nM
- GI50 (COLO 205 colon): 1760 nM and 1740 nM
- TGI (COLO 205 colon): 3170 nM and 3150 nM
- GI50 (MCF7 breast): 1280 nM and 1450 nM
- TGI (MCF7 breast): 2590 nM and 2820 nM
- GI50 (NCI-H23 lung): 1640 nM and 1740 nM
- TGI (NCI-H23 lung): 3020 nM and 3130 nM
- GI50 (SNB-19 CNS): 1920 nM and 1930 nM
- TGI (SNB-19 CNS): 3350 nM and 3370 nM
- GI50 (TK-10 renal): 1680 nM and 1620 nM
- TGI (TK-10 renal): 3060 nM and 2990 nM
- GI50 (NCI-H226 lung): 1220 nM and 1500 nM
- TGI (NCI-H226 lung): 2470 nM and 2840 nM
- GI50 (OVCAR-5 ovarian): 1790 nM and 1800 nM
- TGI (OVCAR-5 ovarian): 3200 nM and 3230 nM
- GI50 (OVCAR-3 ovarian): 1330 nM and 1370 nM
- TGI (OVCAR-3 ovarian): 2630 nM and 2680 nM
- GI50 (SK-OV-3 ovarian): 1350 nM and 1420 nM
- TGI (SK-OV-3 ovarian): 2650 nM and 2760 nM
- GI50 (HCC-2998 colon): 1190 nM and 1540 nM
- TGI (HCC-2998 colon): 2440 nM and 2900 nM
- GI50 (SF-539 CNS): 1040 nM and 1550 nM
- TGI (SF-539 CNS): 2320 nM and 2910 nM
- GI50 (NCI-H460 NSCLC): 657 nM and 1300 nM
- TGI (NCI-H460 NSCLC): 1860 nM and 2650 nM
- GI50 (KM12 colon): 1560 nM and 1740 nM
- TGI (KM12 colon): 2920 nM and 3150 nM
- GI50 (NCI-H522 lung): 1670 nM and 1320 nM
- TGI (NCI-H522 lung): 3050 nM and 2610 nM
- GI50 (MOLT-4 leukemia): 670 nM and 543 nM
- TGI (MOLT-4 leukemia): 1950 nM and 1790 nM
- GI50 (MALME-3M melanoma): 1900 nM and 2030 nM
- TGI (MALME-3M melanoma): 3310 nM and 3470 nM
- GI50 (SN12C renal): 1310 nM and 906 nM
- TGI (SN12C renal): 2600 nM and 2340 nM
- GI50 (HCT-15 colon): 1200 nM and 1300 nM
- TGI (HCT-15 colon): 2480 nM and 2620 nM
- GI50 (HOP-92 NSCLC): 1550 nM and 1610 nM
- TGI (HOP-92 NSCLC): 2900 nM and 2970 nM
- GI50 (HL-60(TB) leukemia): 563 nM and 1950 nM
- TGI (HL-60(TB) leukemia): 1050 nM and 3390 nM
- GI50 (OVCAR-4 ovarian): 1330 nM and 1340 nM
- TGI (OVCAR-4 ovarian): 2630 nM and 2640 nM
- GI50 (SK-MEL-5 melanoma): 1890 nM and 1860 nM
- TGI (SK-MEL-5 melanoma): 3310 nM and 3280 nM
- GI50 (HCT-116 colon): 1490 nM and 1740 nM
- TGI (HCT-116 colon): 2860 nM and 3170 nM
- GI50 (MDA-MB-231 breast): 1630 nM and 1430 nM
- TGI (MDA-MB-231 breast): 3000 nM and 2750 nM
- GI50 (A549 NSCLC): 1780 nM and 1660 nM
- TGI (A549 NSCLC): 3210 nM and 3070 nM
- GI50 (DU-145 prostate): 1680 nM and 1760 nM
- TGI (DU-145 prostate): 3070 nM and 3170 nM
- GI50 (K-562 leukemia): 186 nM and 75.8 nM
- TGI (K-562 leukemia): 402 nM and 214 nM
- GI50 ([…]-0 renal): 1250 nM and 1500 nM
- TGI (786-0 renal): 2520 nM and 2850 nM
- GI50 (MDA-MB-435 melanoma): 1880 nM and 1910 nM
- TGI (MDA-MB-435 melanoma): 3300 nM and 3340 nM
- GI50 (SK-MEL-2 melanoma): 1360 nM and 1410 nM
- TGI (SK-MEL-2 melanoma): 2650 nM and 2730 nM
- GI50 (SF-268 CNS): 1600 nM and 1650 nM
- TGI (SF-268 CNS): 2960 nM and 3030 nM
- GI50 (A498 renal): 1290 nM and 1430 nM
- TGI (A498 renal): 2570 nM and 2760 nM
- GI50 (HOP-62 NSCLC): 1780 nM
- TGI (HOP-62 NSCLC): 3180 nM and 3190 nM
- GI50 (UO-31 renal): 1780 nM and 1740 nM
- TGI (UO-31 renal): 3180 nM and 3140 nM
- GI50 (HT29 colon): 1520 nM and 1580 nM
- TGI (HT29 colon): 2890 nM and 2980 nM
- GI50 (SK-MEL-28 melanoma): 1760 nM and 1830 nM
- TGI (SK-MEL-28 melanoma): 3150 nM and 3240 nM
- GI50 (IGROV1 ovarian): 1160 nM and 1190 nM
- TGI (IGROV1 ovarian): 2390 nM and 2430 nM
- GI50 (HS 578T breast): 1300 nM and 1590 nM
- TGI (HS 578T breast): 2570 nM and 2940 nM
- GI50 (EKVX NSCLC): 1550 nM
- TGI (EKVX NSCLC): 2910 nM
- GI50 (SW-620 colon): 1830 nM and 2290 nM
- TGI (SW-620 colon): 3240 nM and 3770 nM
- GI50 (UACC-257 melanoma): 1540 nM and 1670 nM
- TGI (UACC-257 melanoma): 2900 nM and 3060 nM
- GI50 (U251 glioblastoma): 1670 nM and 1980 nM
- TGI (U251 glioblastoma): 3070 nM and 3440 nM
- GI50 (RPMI-8226 leukemia): 683 nM and 701 nM
- TGI (RPMI-8226 leukemia): 1860 nM and 1940 nM
- GI50 (NCI/ADR-RES ovarian): 1800 nM and 1890 nM
- TGI (NCI/ADR-RES ovarian): 3210 nM and 3380 nM
- GI50 (OVCAR-8 ovarian): 1800 nM and 1680 nM
- TGI (OVCAR-8 ovarian): 3220 nM and 3080 nM
- GI50 (SNB-75 CNS): 1430 nM and 1540 nM
- TGI (SNB-75 CNS): 2750 nM and 2880 nM
- GI50 (LOX IMVI melanoma): 1360 nM and 1490 nM
- TGI (LOX IMVI melanoma): 2650 nM and 2830 nM
- GI50 (RXF 393 renal): 612 nM and 1260 nM
- TGI (RXF 393 renal): 1840 nM and 2520 nM
- GI50 (UACC-62 melanoma): 1770 nM and 1650 nM
- TGI (UACC-62 melanoma): 3180 nM and 3040 nM
- GI50 (ACHN renal): 1540 nM and 1300 nM
- TGI (ACHN renal): 2890 nM and 2600 nM
- GI50 (T-47D breast): 1610 nM and 1710 nM
- TGI (T-47D breast): 2970 nM and 3100 nM
- GI50 (M14 melanoma): 1850 nM and 2140 nM
- TGI (M14 melanoma): 3260 nM and 3610 nM
- GI50 (MDA-MB-468 breast): 2040 nM and 1950 nM
- TGI (MDA-MB-468 breast): 3470 nM and 3370 nM
- GI50 (BT-549 breast): 1340 nM and 1690 nM
- TGI (BT-549 breast): 2630 nM and 3080 nM
- GI50 (CAKI-1 renal): 1310 nM and 1000 nM
- TGI (CAKI-1 renal): 2610 nM and 2350 nM
- GI50 (NCI-H322M lung): 1720 nM and 1700 nM
- TGI (NCI-H322M lung): 3110 nM and 3090 nM
